Data from ChEMBL document CHEMBL1151600, “6-Bromo-3-nitroflavone, a new high affinity benzodiazepine receptor agonist recognizes two populations of cerebral cortical binding sites” (Bioorg Med Chem Lett, 1997).
Activity calls are given as the source filed them. The calls are words filed in the database; no cut-off is given here.

Key:
Mus musculus [1] = assay: Anxiolytic activity in mice at 100 ug/kg; format: functional
[2] = target: GABA-A receptor; anion channel; assay: Inhibition of [3H]flunitrazepam [3H]FNZ) binding to GABA-A Benzodiazepine receptor of synaptosomal membranes from rat cerebellum; format: tissue-based
Mus musculus [3] = assay: Anxiolytic activity in mice at 0.01 to 0.3 mg/kg intraperitoneal administration; format: functional, organism-based
[4] = target: GABA-A receptor; anion channel; assay: Inhibition of [3H]flunitrazepam [3H]FNZ) binding to GABA-A Benzodiazepine receptor of synaptosomal membranes from rat spinal cord; format: tissue-based
[5] = target: GABA-A receptor; anion channel; assay: Inhibition of [3H]flunitrazepam [3H]FNZ) binding to GABA-A Benzodiazepine receptor of synaptosomal membranes from rat hippocampus
[6] = target: GABA-A receptor; anion channel; assay: Inhibition of [3H]zolpidem binding to GABA-A Benzodiazepine receptor of synaptosomal membranes from rat cerebral cortex; format: tissue-based
[7] = target: GABA-A receptor; anion channel; assay: Inhibition of [3H]flunitrazepam [3H]FNZ) binding to GABA-A Benzodiazepine receptor of synaptosomal membranes from rat cerebral cortex; format: tissue-based
[8] = target: GABA-A receptor; anion channel; assay: Inhibition of [3H]flunitrazepam [3H]FNZ) binding to GABA-A Benzodiazepine receptor of synaptosomal membranes from rat striatum
[9] = target: GABA-A receptor; anion channel; assay: Inhibition of [3H]zolpidem binding to GABA-A Benzodiazepine receptor of synaptosomal membranes from rat cerebellum; format: tissue-based
[10] = target: GABA-A receptor; anion channel (Rattus norvegicus) (UniProt O09028+P15431+P18506+P18508+P19969+P20236+P23574+P23576+P28471+P28473+P30191+P62813+P63079+P63138+Q91ZM7+Q9ES14); assay: Inhibition of [3H]flunitrazepam [3H]FNZ) binding to GABA-A benzodiazepine receptor of cortical membranes +/- 100 uM GABA (Partial agonist)

Work on `CN1C(=O)CN=C(c2ccccc2)c2cc(Cl)ccc21` [DIAZEPAM] yielded an Anxiolytic activity (Mus musculus [1]) of 35.

With `O=c1cc(-c2cccc([N+](=O)[O-])c2)oc2ccc(Br)cc12` the Ki [2] was 3.6 nM, the Anxiolytic affect (Mus musculus [3]) was “Active” and the Ki [4] was 12.7 nM. It also gave a Ki [5] of 9.6 nM, a Ki [6] of 3.8 nM and a Ki [7] of 1.2 nM. It also gave a Ki [8] of 9.8 nM, a Ki [9] of 3 nM and a GABA shift [10] of 1.38.

`O=c1cc(-c2ccc([N+](=O)[O-])cc2)oc2ccc(Br)cc12` showed a Ki [7] of 220 nM.
